Measurements published in patent US20250228851A1, “ALLOSTERIC INHIBITOR COMPOUNDS FOR OVERCOMING CANCER RESISTANCE” (priority 2021, published 2025).
pIC50: −log10 of the molar value. “Also recorded” adds a separate entry of the source.

Experiments:
WT-Ba/F3 = experiment: Proliferation by trypan blue exclusion, WT-Ba/F3; type: cell-based, murine; conditions: WT-Ba/F3, 1.0, 2.0 and 5.0 μM
Experimental: (§1) • 1. Ba/F3 cells were obtained from the German Collection of Microorganisms and Cell Cultures (DSMZ, Braunschweig, Germany) and maintained in RPMI 1640 medium supplemented with 10% fetal calf serum (Invitrogen) containing 10 ng/ml of interleukin-3 (Cell Concepts, Umkirch, Germany). Ecotropic Phoenix cells and Rat-1 cells were cultured in Dulbecco's modified Eagle's medium supplemented with 10% fetal calf serum. GNF-2 (Sigma-Adrich, Steinheim, Germany) was dissolved in dimethyl sulfoxide and added at a final concentration of […]. Cell growth was assessed by dye exclusion using Trypan blue. Proliferation was assessed using the XTT proliferation kit (Roche, Mannheim, Germany), according to the manufacturer's instructions. • 2. Ba/F3: IL-3 dependent lymphatic murine pro B cell line. […]
(§2) FIGS. 4A and 4B. […] All cell lines were treated with the indicated concentrations of Compound 16 for total period of five days and proliferation was determined by trypan blue exclusion of viable cells. […] For factor-independent growth, the number of viable cells was determined at day 3 by trypan blue dye exclusion.

Jurkat = experiment: XTT cell viability, Jurkat; type: cell-based, human; conditions: increasing concentration up to 10 μM
Experimental: • 1. Ba/F3 cells were obtained from the German Collection of Microorganisms and Cell Cultures (DSMZ, Braunschweig, Germany) and maintained in RPMI 1640 medium supplemented with 10% fetal calf serum (Invitrogen) containing 10 ng/ml of interleukin-3 (Cell Concepts, Umkirch, Germany). Ecotropic Phoenix cells and Rat-1 cells were cultured in Dulbecco's modified Eagle's medium supplemented with 10% fetal calf serum. GNF-2 (Sigma-Adrich, Steinheim, Germany) was dissolved in dimethyl sulfoxide and added at a final concentration of […]. Cell growth was assessed by dye exclusion using Trypan blue. Proliferation was assessed using the XTT proliferation kit (Roche, Mannheim, Germany), according to the manufacturer's instructions. • 2. Ba/F3: IL-3 dependent lymphatic murine pro B cell line. Ba/F3 cells expressing either p185-BCR-ABL1 (p185-BCR-ABL-Ba/F3) or p210-BCR-ABL (p210-BCR-ABL-Ba/F3). p185-BCR-ABL1 (activated kinases substitute for the IL-3 signaling and therefore render the cells IL3 independent. Ba/F3 cells expressing either p185-BCR-ABL (p185-Ba/F3) or p210-BCR-ABL (p210-Ba/F3). Ba/F3 cells obtained from the German Collection of Microorganisms and Cell Cultures (DSMZ, Braunschweig, Germany). • 3. Mutant transduced Ba/F3 cells (T315I-p185-BCR-ABL1 or T315I-p210-BCR-ABL1): Ba/F3 cells expressing either the mutated forms T315I-p185-BCR-ABL1 or T315I-p210-BCR-ABL1. • 4. WT-Sup-B15: A Ph+ ALL cell line harboring the p185-BCR-ABL. Sup-B15: established from the bone marrow of a child with acute lymphoblastic leukemia (B cell precursor ALL) in second relapse in 1984; described in the literature to carry the ALL-variant (m-BCR) of the BCR-ABL1 fusion gene (e1-a2) correct, because it results in the p185-BCR-ABL version. • 5. […]
FIG. 2: Effect of Compound 16 on leukemia cell lines (Jurkat, Sup-B15 and BV173). Cell viablility (CV) was determined following incubation of the 1 m cells/ml of each cell line with increasing concentration of the Compound 16 [empty vehicle (0.0 μM+IL3), 2.5, 5.0 and 10.0 μM]. CV was measured by the XTT method. […]

HP (Ph− ALL cultures) = experiment: Proliferation by dye exclusion after three days, HP; type: cell-based, human; conditions: HP, 2.5, 5 and 10 μM
Experimental: (§3) FIG. 3. […] Cells were exposed to increasing concentration of 2.5, 5 and 10 μM of Compound 16. The negative control cell lines Ph− ALL HP was irresponsive to increasing concentration of Compound 16 (up to 10 μM). […] All four cell lines were plated in duplicates at the indicated concentrations, and proliferation was assessed after three days by dye exclusion of viable cells. […] The sensitivity of Ph+ cells to Compound 16 underlines the involvement of BCR-ABL in the antiproliferative mechanism. Death induction of BV173 cells is well taken as an indication of the ability of such group of compounds to overcome resistance that is originated in non-mutational grounds. However, the ability overcome the resistant T315I-BCR-ABL mutant, as shown in the dose-dependent manner of KÖ (circles), might be indicative for a non-ATP competitive mechanism of action.

[1] = test system: Ba/F3 cells expressing T315I-p185-BCR-ABL; experiment: XTT cell viability / proliferation, Ba/F3 expressing T315I-p185-BCR-ABL; type: cell-based, murine
Experimental: • 1. Ba/F3 cells were obtained from the German Collection of Microorganisms and Cell Cultures (DSMZ, Braunschweig, Germany) and maintained in RPMI 1640 medium supplemented with 10% fetal calf serum (Invitrogen) containing 10 ng/ml of interleukin-3 (Cell Concepts, Umkirch, Germany). Ecotropic Phoenix cells and Rat-1 cells were cultured in Dulbecco's modified Eagle's medium supplemented with 10% fetal calf serum. GNF-2 (Sigma-Adrich, Steinheim, Germany) was dissolved in dimethyl sulfoxide and added at a final concentration of […]. Cell growth was assessed by dye exclusion using Trypan blue. Proliferation was assessed using the XTT proliferation kit (Roche, Mannheim, Germany), according to the manufacturer's instructions. • 2. Ba/F3: IL-3 dependent lymphatic murine pro B cell line. Ba/F3 cells expressing either p185-BCR-ABL1 (p185-BCR-ABL-Ba/F3) or p210-BCR-ABL (p210-BCR-ABL-Ba/F3). p185-BCR-ABL1 (activated kinases substitute for the IL-3 signaling and therefore render the cells IL3 independent. Ba/F3 cells expressing either p185-BCR-ABL (p185-Ba/F3) or p210-BCR-ABL (p210-Ba/F3). Ba/F3 cells obtained from the German Collection of Microorganisms and Cell Cultures (DSMZ, Braunschweig, Germany). • 3. Mutant transduced Ba/F3 cells (T315I-p185-BCR-ABL1 or T315I-p210-BCR-ABL1): Ba/F3 cells expressing either the mutated forms T315I-p185-BCR-ABL1 or T315I-p210-BCR-ABL1. • 4. WT-Sup-B15: A Ph+ ALL cell line harboring the p185-BCR-ABL. Sup-B15: established from the bone marrow of a child with acute lymphoblastic leukemia (B cell precursor ALL) in second relapse in 1984; described in the literature to carry the ALL-variant (m-BCR) of the BCR-ABL1 fusion gene (e1-a2) correct, because it results in the p185-BCR-ABL version. • 5. […] V617FJAK2 HEL: (Human erythroleukemia) is a growth factor independent erythroleukemic cell line established from the bone marrow of a patient with relapsed Hodgkin disease after autologous bone marrow transplantation (Martin P & Papayannopoulou T: Science 1982; 216:1233-1235). HEL cells display a block in differentiation at the level of common erythroid-megakaryocytic progenitor and have been commonly used as a model to study erythroid and megakaryocytic differentiation. • 7. Jurkat: an immortalized human T lymphocyte first derived from the peripheral blood of a child suffering from T cell leukemia. Jurkat cells are used to study acute T cell leukemia, T cell signaling, and the expression of various chemokine receptors susceptible to viral entry, particularly HIV.
FIGS. 1A and 1B: Effects of Compound 16 on Ba/F3 cells expressing either p185-BCR-ABL or T315I-p185-BCR-ABL. Cells were exposed to increasing concentration of Compound 16 [empty vehicle (0.0 μM+IL3), 2.5, 5.0 and 10.0 μM]. […] Cell viability (CV) was assessed using the XTT method as described in the experimental part. The means±SD of triplicates from one representative experiment out of three performed are given.
FIGS. 7A-C: Effects of Compound 16 on of Ba/F3 cells expressing WT-p185-BCR-ABL (FIG. 7A) and the mutant gatekeeper T315I-p185-BCR-ABL (FIG. 7B) by Compound 16. Cells were exposed to increasing concentrations of Compound 16.

[2] = test system: p185-Ba/F3 (WT-Ba/F3-p185-BCR-ABL); experiment: Proliferation by trypan blue exclusion, p185-Ba/F3; type: cell-based, murine; conditions: p185-Ba/F3, 1.0, 2.0 and 5.0 μM
Experimental: as §1, §2

BV173 = experiment: Proliferation by dye exclusion after three days, BV173; type: cell-based, human
Experimental: as §3

Compound: COc1ccc(C(=O)N2CCN(c3cc(Nc4ccc(OC(F)(F)F)cc4)ncn3)CC2)cc1OC [Compound 16]
- effect on proliferation (in words) (WT-Ba/F3): without affecting the proliferation
- antiproliferative response (in words) (Jurkat): highly insensitive; also recorded: irresponsive
- response (in words) (HP (Ph− ALL cultures)): irresponsive
- RF (T315I-p185 versus p185-Ba/F3) ([1]; 1 μM, 48 hr): 1.07
- cells inhibited ([1]; 1 μM, within the first 24 hours): not affected
- resistance conferred by T315I mutant versus p185-Ba/F3 ([1]; 2 μM, T=48 hr): 1.84 fold
- viable cells ([1]; 2 μM, T=48 hr): 50.71%
- time to complete inhibition ([1]; 10 μM): ~96 h
- cell proliferation affected ([1]; 5 and 10 μM): ~80%
- effect on proliferation (in words) [2]: inhibits the proliferation
- pIC50 (BV173): 5.60
